We go through 1 compound from ChEMBL document CHEMBL5543148, “Discovery of First-in-Class PROTAC Degraders of SARS-CoV-2 Main Protease” (J Med Chem, 2024).

Molecules are shown by their SMILES.

In assay [1] the test system is SARS-CoV-2. In words: Antiviral activity against SARS-CoV-2 harboring NSP5 E166A mutant infected in human A549-ACE2 cells measured after 48 hrs by RT-PCR analysis. In kind it is functional, organism-based, Severe acute respiratory syndrome coronavirus 2.
Assay [2] deals with SARS-CoV-2. Description: Antiviral activity against SARS-CoV-2 harboring recombinant live-attenuated delta3678 mGFP infected in human A549-ACE2 cells measured after 48 hrs by RT-PCR analysis. In kind it is functional, organism-based. The settings on record: Severe acute respiratory syndrome coronavirus 2, A549-ACE2, 48 h.

As for `C[C@@H](OC(C)(C)C)[C@H](NC(=O)OCc1cccc(OCCCCCCOc2cccc3c2C(=O)N(C2CCC(=O)NC2=O)C3=O)c1)C(=O)N[C@@H](CC1CCCCC1)C(=O)N[C@H](C=O)C[C@@H]1CCNC1=O` (some centres not stated), the EC50 was found to be 0.46 µM in the assay on SARS-CoV-2 [1] and 2.2 µM with SARS-CoV-2 [2].

The term EC50 denotes the midpoint of the concentration-response curve.
